Experimental data as given in ChEMBL document CHEMBL4184163, “Aspergillus candidus is a newly recognized source of sphaeropsidin A: Isolation, semi-synthetic derivatization and anticancer evaluation” (Bioorg Med Chem Lett, 2017).
Active and inactive are the calls of the source. No cut-off for these calls is given here.

Experiments:
[1] = species: Homo sapiens; experiment: Antiproliferative activity against human D423 cells grown as 2D culture at 0.0625 to 10 uM after 5 days by CellTiter-Glo luminescence assay; type: functional, cell-based
[2] = species: Homo sapiens; experiment: Antiproliferative activity against human GLI56 cells grown as 2D culture at 0.0625 to 10 uM after 5 days by CellTiter-Glo luminescence assay; type: functional, cell-based
[3] = species: Homo sapiens; experiment: Antiproliferative activity against human D423 cells grown as 3D culture at 10 uM after 5 days by CellTiter-Glo 3D viability assay; type: functional, cell-based
[4] = species: Homo sapiens; experiment: Antiproliferative activity against human GLI56 cells grown as 3D culture at 10 uM after 5 days by CellTiter-Glo 3D viability assay; type: functional, cell-based
[5] = species: Homo sapiens; experiment: Cytotoxicity against human GLI56 cells grown as 3D culture assessed as disruption of morphological integrity at 10 uM after 5 days by confocal laser scanning microscopic method; type: functional, cell-based
[6] = species: Homo sapiens; experiment: Cytotoxicity against human D423 cells grown as 3D culture assessed as disruption of morphological integrity at 10 uM after 5 days by confocal laser scanning microscopic method; type: functional, cell-based
[7] = tested on: Panel NCI-60 (60 carcinoma cell lines); experiment: Growth inhibition of human NCI60 cells; type: functional
[8] = Growth inhibition of normal human epidermal melanocytes by MTT assay; type: cell-based, Melanocyte

SMILES	Activity [1]	Activity [2]	Activity [3]	Activity [4]	Activity [5]	Activity [6]	GI50 [7] [µM]	GI50 [8] [µM]
C=C[C@]1(C)C=C2C(=O)[C@@]3(OC(=O)CCC)OC(=O)[C@@]4(CCCC(C)(C)[C@H]34)[C@@]2(O)CC1	Active	Active	inactive	Active	Active	–	–	–
CC1(C)CCC[C@]23C(=O)O[C@](O)(C(=O)C4=C[C@@](C)(/C=C/c5ccc(Cl)cc5)CC[C@@]42O)[C@@H]13	Active	Active	Active	Active	Active	Active	–	–
CC1(C)CCC[C@]23C(=O)O[C@](O)(C(=O)C4=C[C@@](C)(/C=C/[Si](C)(C)C)CC[C@@]42O)[C@@H]13	Active	Active	inactive	inactive	–	–	–	–
C=C[C@]1(C)C=C2C(=O)[C@@]3(O)OC(=O)[C@@]4(CCCC(C)(C)[C@H]34)[C@@]2(O)CC1 [SPHAEROPSIDIN A]	Active	Active	inactive	inactive	inactive	–	1.6	13
C=C[C@]1(C)C=C2C(=O)[C@@]3(OC(=O)c4ccc(C)o4)OC(=O)[C@@]4(CCCC(C)(C)[C@H]34)[C@@]2(O)CC1	Active	Active	Active	Active	Active	Active	–	–
C=CCCCC(=O)O[C@]12OC(=O)[C@@]3(CCCC(C)(C)[C@H]13)[C@@]1(O)CC[C@](C)(C=C)C=C1C2=O	Active	Active	inactive	Active	Active	–	–	–
